How the values were obtained:
[1] = target: T1, Amine oxidase [flavin-containing] A (Rattus norvegicus, UniProt P21396); experiment: Inhibition of MAO-A in rat liver mitochondria using p-tyramine as substrate preincubated for 10 mins followed by substrate addition measured after 30 mins in presence of MAO-B inhibitor deprenyl by Amplex red dye-based fluorescence assay
T1 sequence (P21396 whole entry): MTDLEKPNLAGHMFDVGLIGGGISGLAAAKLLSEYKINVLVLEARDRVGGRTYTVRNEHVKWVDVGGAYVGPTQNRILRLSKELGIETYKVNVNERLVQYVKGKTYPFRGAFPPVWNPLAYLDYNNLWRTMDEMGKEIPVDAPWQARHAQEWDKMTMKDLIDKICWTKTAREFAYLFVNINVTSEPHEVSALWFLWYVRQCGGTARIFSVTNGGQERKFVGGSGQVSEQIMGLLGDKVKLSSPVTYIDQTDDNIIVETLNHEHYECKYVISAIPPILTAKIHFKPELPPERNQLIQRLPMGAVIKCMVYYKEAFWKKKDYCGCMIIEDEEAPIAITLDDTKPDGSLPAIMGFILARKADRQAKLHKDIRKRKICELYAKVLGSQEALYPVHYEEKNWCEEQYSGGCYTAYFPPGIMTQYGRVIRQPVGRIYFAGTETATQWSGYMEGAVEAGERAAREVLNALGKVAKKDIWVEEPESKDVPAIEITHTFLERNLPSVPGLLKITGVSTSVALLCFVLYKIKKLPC

[2] = target: T2, Amine oxidase [flavin-containing] B (Rattus norvegicus, UniProt P19643); experiment: Inhibition of MAO-B in rat liver mitochondria using p-tyramine as substrate preincubated for 10 mins followed by substrate addition measured after 30 mins in presence of MAO-A inhibitor clorgyline by Amplex red dye-based fluorescence assay
T2 sequence (P19643 whole entry): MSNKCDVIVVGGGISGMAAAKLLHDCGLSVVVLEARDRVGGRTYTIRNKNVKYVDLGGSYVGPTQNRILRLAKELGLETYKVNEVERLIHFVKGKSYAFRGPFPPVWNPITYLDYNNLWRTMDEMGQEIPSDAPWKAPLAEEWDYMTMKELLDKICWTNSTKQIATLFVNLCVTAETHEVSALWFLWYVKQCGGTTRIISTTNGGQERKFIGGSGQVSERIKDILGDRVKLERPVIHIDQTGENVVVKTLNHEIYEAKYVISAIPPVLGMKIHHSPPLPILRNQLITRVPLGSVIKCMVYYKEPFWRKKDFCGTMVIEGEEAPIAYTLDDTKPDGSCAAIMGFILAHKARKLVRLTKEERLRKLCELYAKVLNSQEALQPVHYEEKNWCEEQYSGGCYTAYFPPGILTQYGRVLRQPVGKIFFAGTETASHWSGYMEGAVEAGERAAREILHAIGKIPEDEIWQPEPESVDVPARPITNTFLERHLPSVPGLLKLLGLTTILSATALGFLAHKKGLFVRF

[3] = species on record: Rattus norvegicus; experiment: Selectivity index, ratio of IC50 for MAO-A in rat liver mitochondria to IC50 for MAO-B in rat liver mitochondria
[4] = target: T2, Amine oxidase [flavin-containing] B; experiment: Competitive inhibition of MAO-B in rat liver mitochondria using p-tyramine as substrate up to 0.3 uM preincubated for 10 mins followed by substrate addition measured after 30 mins by Lineweaver-burk plot analysis; conditions: 0.5 h

Structure (SMILES)	IC50 [1]	IC50 [2]	Ratio IC50 [3]	inhibition (INH) [4]
O=C(N/N=C/c1ccccc1)C1=C(O)c2ccccc2S(=O)(=O)N1Cc1ccccc1	≥ 100 µM	9.52 µM	> 10.5	
O=C(N/N=C/c1cccc(Cl)c1)C1=C(O)c2ccccc2S(=O)(=O)N1Cc1ccccc1	0.96 µM	36.4 µM	0.02	
O=C(N/N=C/c1ccccc1O)C1=C(O)c2ccccc2S(=O)(=O)N1Cc1ccccc1	18.7 µM	4.24 µM	4.41	
C/C(=N\NC(=O)C1=C(O)c2ccccc2S(=O)(=O)N1C)c1ccccc1	6.67 µM	7.14 µM	0.93	
COC(=O)C1=C(O)c2ccccc2S(=O)(=O)N1	2.97 µM	0.21 µM	14.1	Active
NNC(=O)C1=C(O)c2ccccc2S(=O)(=O)N1Cc1ccccc1	≥ 100 µM	10.6 µM	> 9.43	
O=C(N/N=C/c1ccc(Cl)cc1)C1=C(O)c2ccccc2S(=O)(=O)N1Cc1ccccc1	≥ 100 µM	2.08 µM	> 48.1	
O=C(N/N=C/c1ccc(Cl)cc1)C1=C(O)c2ccccc2S(=O)(=O)N1	0.177 µM	0.31 µM	0.57	
CN1C(C(=O)NN)=C(O)c2ccccc2S1(=O)=O	0.12 µM	1.5 µM	0.08	
COc1ccc(/C=N/NC(=O)C2=C(O)c3ccccc3S(=O)(=O)N2Cc2ccccc2)cc1	0.24 µM	0.29 µM	0.83	
C/C(=N\NC(=O)C1=C(O)c2ccccc2S(=O)(=O)N1Cc1ccccc1)c1ccc(F)cc1	≥ 100 µM	6.04 µM	> 16.5	
C/C(=N\NC(=O)C1=C(O)c2ccccc2S(=O)(=O)N1C)c1ccc(Cl)cc1	11.2 µM	0.76 µM	14.7	
COc1ccc(/C=N/NC(=O)C2=C(O)c3ccccc3S(=O)(=O)N2)cc1	5.76 µM	1.91 µM	3.02	
CN1C(C(=O)N/N=C/c2ccc(Cl)cc2)=C(O)c2ccccc2S1(=O)=O	6.12 µM	15.5 µM	0.39	
Cc1ccc(/C=N/NC(=O)C2=C(O)c3ccccc3S(=O)(=O)N2Cc2ccccc2)cc1	≥ 100 µM	89.1 µM	> 1.12	
Cc1ccc(/C=N/NC(=O)C2=C(O)c3ccccc3S(=O)(=O)N2C)cc1	4.85 µM	24.1 µM	0.2	
NNC(=O)C1=C(O)c2ccccc2S(=O)(=O)N1	1.58 µM	4.33 µM	0.36	
C/C(=N\NC(=O)C1=C(O)c2ccccc2S(=O)(=O)N1Cc1ccccc1)c1ccc(Cl)cc1	0.33 µM	10.1 µM	0.03	
CC(C)c1ccc(/C=N/NC(=O)C2=C(O)c3ccccc3S(=O)(=O)N2)cc1	≥ 100 µM	38.1 µM	> 2.62	
CCOc1ccc(/C=N/NC(=O)C2=C(O)c3ccccc3S(=O)(=O)N2Cc2ccccc2)cc1	28.3 µM	5.78 µM	4.89	
O=C(NN=C1CCCC1)C1=C(O)c2ccccc2S(=O)(=O)N1	≥ 100 µM	0.92 µM	> 109	

From ChEMBL document CHEMBL4138153, “Synthesis, monoamine oxidase inhibition activity and molecular docking studies of novel 4-hydroxy-N'-[benzylidene or 1-phenylethylidene]-2-H/methyl/benzyl-1,2-benzothiazine-3-carbohydrazide 1,1-dioxides” (Eur J Med Chem, 2018)
